According to patent US11154529B2, “Phosphaplatin liquid formulations” (Phosplatin Therapeutics Inc., priority 2016, dated 2021):

Test: Ready-to-use formulation stability at 25° C./60% RH, 5 mg/mL (R,R)-pyrodach-2 in 10 mM Bicarbonate Buffer at pH 8.6, 10 mL vials
Format: physicochemical

For `O=P1(O)OP(=O)(O)[O][Pt]2([NH][C@@H]3CCCC[C@H]3[NH]2)[O]1` (stereo partly drawn) [(R,R)-pyrodach-2, (R,R)-trans-1,2-cyclohexanediamine-(dihydrogenpyrophosphato)platinum(II)], the “Unknown Impurities RRT~2.85” value (3 week) was “ND (ND = Not Detected, or <0.05%)”, the “Unknown Impurities RRT~3.00” value (3 week) was “ND (ND = Not Detected, or <0.05%)” and the “Unknown Impurities RRT~3.15” value (3 week) was “ND (ND = Not Detected, or <0.05%)”. For the same molecule, the “Unknown Impurities RRT~3.30” value (3 week) was “ND (ND = Not Detected, or <0.05%)”, the “Unknown Impurities RRT~3.45” value (3 week) was “ND (ND = Not Detected, or <0.05%)” and the “Unknown Impurities RRT~3.74” value (3 week) was 0.06%. The “Unknown Impurities RRT~4.27” value (3 week) was “ND (ND = Not Detected, or <0.05%)”, the “Unknown Impurities RRT~4.99” value (3 week) was “ND (ND = Not Detected, or <0.05%)” and the pH (3 week) was 8.67. The “Potency (Assay)” value (4 month) was 103.0%, the “Purity (% Area)” value (4 month) was 95.98% and the “Unknown Impurities RRT~0.29” value (4 month) was 0.16%. The “Unknown Impurities RRT~0.42” value (4 month) was 0.96%, the “Unknown Impurities RRT~0.49” value (4 month) was 0.94% and the “Unknown Impurities RRT~0.59” value (4 month) was 0.17%. For the same molecule, the “Unknown Impurities RRT~0.73” value (4 month) was 0.73%, the “Unknown Impurities RRT~1.82” value (4 month) was “ND (ND = Not Detected, or <0.05%)” and the “Unknown Impurities RRT~2.85” value (4 month) was 0.17%. The “Unknown Impurities RRT~3.00” value (4 month) was “ND (ND = Not Detected, or <0.05%)”, the “Unknown Impurities RRT~3.15” value (4 month) was “ND (ND = Not Detected, or <0.05%)” and the “Unknown Impurities RRT~3.30” value (4 month) was “ND (ND = Not Detected, or <0.05%)”. The “Unknown Impurities RRT~3.45” value (4 month) was “ND (ND = Not Detected, or <0.05%)”, the “Unknown Impurities RRT~3.74” value (4 month) was 0.58% and the “Unknown Impurities RRT~4.27” value (4 month) was 0.06%. For the same molecule, the “Unknown Impurities RRT~4.99” value (4 month) was 0.20%, the pH (4 month) was 8.90 and the “Potency (Assay)” value (6 month) was 99.2%. For the same molecule, the “Purity (% Area)” value (6 month) was 95.03%, the “Unknown Impurities RRT~0.29” value (6 month) was 0.22% and the “Unknown Impurities RRT~0.42” value (6 month) was 1.29%. For the same molecule, the “Unknown Impurities RRT~0.49” value (6 month) was 0.80%, the “Unknown Impurities RRT~0.59” value (6 month) was 0.32% and the “Unknown Impurities RRT~0.73” value (6 month) was 0.82%. The “Unknown Impurities RRT~1.82” value (6 month) was “ND (ND = Not Detected, or <0.05%)”, the “Unknown Impurities RRT~2.85” value (6 month) was 0.15% and the “Unknown Impurities RRT~3.00” value (6 month) was 0.07%. For the same molecule, the “Unknown Impurities RRT~3.15” value (6 month) was “ND (ND = Not Detected, or <0.05%)”, the “Unknown Impurities RRT~3.30” value (6 month) was 0.05% and the “Unknown Impurities RRT~3.45” value (6 month) was “ND (ND = Not Detected, or <0.05%)”. For the same molecule, the “Unknown Impurities RRT~3.74” value (6 month) was 0.69%, the “Unknown Impurities RRT~4.27” value (6 month) was 0.08% and the “Unknown Impurities RRT~4.99” value (6 month) was 0.36%. The pH (6 month) was 8.93, the “Potency (Assay)” value (9 month) was 100.3% and the “Purity (% Area)” value (9 month) was 93.82%. The “Unknown Impurities RRT~0.29” value (9 month) was 0.15%, the “Unknown Impurities RRT~0.42” value (9 month) was 1.88% and the “Unknown Impurities RRT~0.49” value (9 month) was 0.84%. For the same molecule, the “Unknown Impurities RRT~0.59” value (9 month) was 0.32%, the “Unknown Impurities RRT~0.73” value (9 month) was 0.43% and the “Unknown Impurities RRT~1.82” value (9 month) was 0.05%. The “Unknown Impurities RRT~2.85” value (9 month) was 0.32%, the “Unknown Impurities RRT~3.00” value (9 month) was “ND (ND = Not Detected, or <0.05%)” and the “Unknown Impurities RRT~3.15” value (9 month) was 0.07%. For the same molecule, the “Unknown Impurities RRT~3.30” value (9 month) was 0.10%, the “Unknown Impurities RRT~3.45” value (9 month) was 0.06% and the “Unknown Impurities RRT~3.74” value (9 month) was 0.88%. For the same molecule, the “Unknown Impurities RRT~4.27” value (9 month) was 0.13%, the “Unknown Impurities RRT~4.99” value (9 month) was 0.66% and the pH (9 month) was 9.08. The “Potency (Assay)” value (12 month) was 98.4%, the “Purity (% Area)” value (12 month) was 92.23% and the “Unknown Impurities RRT~0.29” value (12 month) was 0.14%. For the same molecule, the “Unknown Impurities RRT~0.42” value (12 month) was 2.20%, the “Unknown Impurities RRT~0.49” value (12 month) was 0.86% and the “Unknown Impurities RRT~0.59” value (12 month) was 0.32%. The “Unknown Impurities RRT~0.73” value (12 month) was 0.97%, the “Unknown Impurities RRT~1.82” value (12 month) was 0.06% and the “Unknown Impurities RRT~2.85” value (12 month) was 0.37%. The “Unknown Impurities RRT~3.00” value (12 month) was 0.06%, the “Unknown Impurities RRT~3.15” value (12 month) was 0.06% and the “Unknown Impurities RRT~3.30” value (12 month) was 0.12%. The “Unknown Impurities RRT~3.45” value (12 month) was 0.05%, the “Unknown Impurities RRT~3.74” value (12 month) was 1.07% and the “Unknown Impurities RRT~4.27” value (12 month) was 0.15%. For the same molecule, the “Unknown Impurities RRT~4.99” value (12 month) was 1.02%, the pH (12 month) was 9.07 and the “Potency (Assay)” value (Initial) was 100.3%. For the same molecule, the “Purity (% Area)” value (Initial) was 98.04%, the “Unknown Impurities RRT~0.29” value (Initial) was 0.11% and the “Unknown Impurities RRT~0.42” value (Initial) was “ND (ND = Not Detected, or <0.05%)”. For the same molecule, the “Unknown Impurities RRT~0.49” value (Initial) was 0.62%, the “Unknown Impurities RRT~0.59” value (Initial) was “ND (ND = Not Detected, or <0.05%)” and the “Unknown Impurities RRT~0.73” value (Initial) was 1.05%. For the same molecule, the “Unknown Impurities RRT~1.82” value (Initial) was “ND (ND = Not Detected, or <0.05%)”, the “Unknown Impurities RRT~2.85” value (Initial) was “ND (ND = Not Detected, or <0.05%)” and the “Unknown Impurities RRT~3.00” value (Initial) was “ND (ND = Not Detected, or <0.05%)”. The “Unknown Impurities RRT~3.15” value (Initial) was “ND (ND = Not Detected, or <0.05%)”, the “Unknown Impurities RRT~3.30” value (Initial) was “ND (ND = Not Detected, or <0.05%)” and the “Unknown Impurities RRT~3.45” value (Initial) was “ND (ND = Not Detected, or <0.05%)”. For the same molecule, the “Unknown Impurities RRT~3.74” value (Initial) was “ND (ND = Not Detected, or <0.05%)”, the “Unknown Impurities RRT~4.27” value (Initial) was “ND (ND = Not Detected, or <0.05%)” and the “Unknown Impurities RRT~4.99” value (Initial) was “ND (ND = Not Detected, or <0.05%)”. It also gave a pH (Initial) of 8.60.
